The source of these data is article PMC4167585 (Cell, 2014).

As a reminder, the Ki is a measure of affinity in units of concentration, obtained from inhibition or displacement. A word on the Km: it is the substrate concentration at which the rate is half of its maximum. A word on the kcat: it is the number of substrate molecules converted per active site and unit of time at saturation.

In series [1] the target is T1, human microsomal GST (MGST1) (Homo sapiens, UniProt P10620).
T1 sequence (P10620 1-155): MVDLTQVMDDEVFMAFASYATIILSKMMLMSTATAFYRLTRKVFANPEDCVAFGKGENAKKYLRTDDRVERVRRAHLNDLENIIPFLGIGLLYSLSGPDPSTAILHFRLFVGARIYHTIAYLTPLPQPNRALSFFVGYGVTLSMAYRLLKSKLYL
Briefly: GST activity toward CDNB. Particulars: GSH co-substrate. It is filed as biochemical.

For a further series, the target named is EXP1 (Plasmodium falciparum, UniProt Q8IIF0). Put plainly: inhibition of GSH-CDNB conjugation, Dixon plot. The class given is biochemical.
Series [2] concerns C=CC1=C(C)C2=Cc3c(C=C)c(C)c4[n]3[Fe+][n]3c(c(C)c(CCC(=O)O)c3=CC3=NC(=C4)C(C)=C3CCC(=O)O)=CC1=N2. Put plainly: purified protein. The settings on record: 2 mM GSH, 100 nM enzyme, pH 6.5, 0.1% Triton X-100.

On to `O=[N+]([O-])c1ccc(Cl)c([N+](=O)[O-])c1` [1-chloro-2,4-dinitrobenzene], for which the “GST activity toward CDNB” value in series [1] is on record as “comparable to that of the human microsomal GST (MGST1, Figure S3D-F)”.

For `C=CC1=C(C)C2=Cc3c(C=C)c(C)c4[n]3[Fe+][n]3c(c(C)c(CCC(=O)O)c3=CC3=NC(=C4)C(C)=C3CCC(=O)O)=CC1=N2` [hematin], affinity on EXP1 was put at a Ki of 170 nM.

For EXP1 (Plasmodium falciparum 3D7), in series [2], the Km stood at 0.251 µM and the kcat is 7.7 s⁻¹.
